Data published in article PMC8585833, “Serum concentrations of antidepressants, antipsychotics, and antiepileptics over the bariatric surgery procedure” (European Journal of Clinical Pharmacology, 2021).
Where two headings read alike, the source gives them in different places.

Experiments:
[1] = Dose-adjusted steady-state trough serum concentrations before and after low-calorie diet and bariatric surgery; assay type: in vivo, human
Source text: We designed the study as a naturalistic longitudinal, prospective case series with intra-individual comparisons of drug concentrations over time, before and up to 1 year after the surgical procedure.
The participants contributed blood samples to the current study during routine pre-surgery visits before, and post-surgery visits about 8 weeks, 6 months, and 1 year after, the surgery. Pre-surgery sampling generally occurred twice: at an initial preoperative assessment visit, and just before surgery. Between these visits, that is, before surgery, patients were required to adhere to a low-calorie diet and show a weight reduction. The samples were stored as serum in −80 °C at a biobank, and analysed after all samples had been collected.
Before every routine visit at which the sampling was to occur, we contacted the participants by telephone to systematically obtain information on the current dose as well as adherence to the drug treatment in question over the 2 preceding weeks. Samples were excluded from the data set if non-adherence less than four elimination half-lives prior to sampling was reported; exceptions were made for occasional missed doses of fluoxetine. Half-lives applied were those described for a drug or its metabolite in the summary of product characteristics. We also asked for and recorded concomitant drug treatment, weight, and smoking status. To be able to relate potential changes in concentration to health consequences, we asked the participants during the follow-up phone calls, using an open question, if anything had happened to their health since the last visit. To obtain trough blood concentrations, we strived to schedule the routine visits before lunchtime and the participants were instructed not to take morning tablets before the sampling.
Specific substances were analysed concomitantly, using clinical routine methods, at accredited laboratories at the Department of Clinical Chemistry, Sahlgrenska University Hospital, Gothenburg, Sweden, or (as for gabapentin, hydroxybupropion, mianserine, pregabalin, paroxetine and topiramate) at the Department of Clinical Pharmacology, St. Olav’s Hospital, Trondheim, Norway. Analysis methods were based on liquid chromatography/tandem mass spectrometry or (for lamotrigine and valproic acid) enzyme immunoassay.
(§1) Statistical analyses were performed using SPSS, version 23.0 (IBM SPSS Statistics for Windows, Armonk, NY, USA). Participants treated with the same substance before and after surgery, with one or more trough sample concentrations available, were included in the analysis. To allow interindividual and intraindividual comparisons, serum concentrations were adjusted for defined daily dose (DDD). For example, since DDD for citalopram is 20 mg, a DDD-adjusted citalopram concentration of 100 nmol/L could represent a measured concentration of 50, 100, or 200 nmol/L, given a daily dose of 10, 20, or 40 mg, respectively. To compare pre- to post-surgery concentrations, as well as pre- to post-diet concentrations, we used Wilcoxon signed rank test for substances with samples available for six or more individuals. We used Spearman’s correlation to explore the relationship between the ratio of the post-/pre-diet concentrations and (i) the distribution coefficient for the drug in question, i.e., the logarithm of the ratio of its concentration in a lipophilic and a hydrophilic solution (logD), as well as (ii) the weight loss in kilograms for pregabalin.

[2] = source not stated, cited from earlier work
[3] = Distribution coefficient (logD), octanol/water; assay type: physicochemical; settings: two-phase system, pH 7.4; from logD
Protocol: as §1

[4] = historical data or matched non-surgery subjects as controls; cited from earlier work
[5] = selection limit for extremely hydrophilic or extremely lipophilic substances in literature search

Question: For CN1CCN2c3ccccc3Cc3ccccc3C2C1 (centres unmarked) [Mianserine], which “Dose-adjusted drug concentration Median (IQR), Pre-diet/pre-surgery” value ([1]; human, in vivo) is on record?
Answer: The value was 255 (N/A) nmol/L.

Question: And the “Dose-adjusted drug concentration Median (IQR), post-diet” value ([1]; human, in vivo)?
Answer: Its value is 201 (N/A) nmol/L.

Question: And the “Dose-adjusted drug concentration Median (IQR), pre-diet” value ([1]; human, in vivo)?
Answer: Its value is 255 (N/A) nmol/L.

Question: What about the “Dose-adjusted drug concentration Median (IQR), Post-surgery” value ([1]; human, in vivo, 379 days after surgery (median), trough) of the same compound?
Answer: The value was 183 (N/A) nmol/L.

Question: And the logD ([2]; octanol/water, pH 7.4)?
Answer: The logD was 3.14.

Question: What about the “Abundance in octanol relative to water” value [3] of the same compound?
Answer: The value was “more than 1 000 fold”.

Question: Which “Dose-adjusted drug concentration Median (IQR), Pre-diet/pre-surgery” value ([1]; Table 2A, antiepileptics, trough serum, adjusted for dose in DDDs) does the source give for CC(C)C[C@H](CN)CC(=O)O [Pregabalin] here?
Answer: Its value is 8.5 (5.8–16) µmol/L.

Question: And the “Dose-adjusted drug concentration Median (IQR), post-diet” value ([1]; Table 2B, antiepileptics, trough serum, adjusted for dose in DDDs, after pre-surgery low-calorie diet)?
Answer: Its value is 25 (8–33) µmol/L.

Question: And the “Dose-adjusted drug concentration Median (IQR), pre-diet” value ([1]; Table 2B, antiepileptics, trough serum, adjusted for dose in DDDs, before low-calorie diet)?
Answer: Its value is 9.5 (7–21) µmol/L.

Question: What about the “Change in dose-adjusted concentration over the pre-surgery low-calorie diet” value ([1]; after the pre-surgery diet, before surgery, median weight reduction 6 kg) of the same compound?
Answer: Its value is “increased”.

Question: What about the concentration at 379 days after surgery (median), trough ([1]; human, in vivo, Table 2A, antiepileptics, trough serum, adjusted for dose in DDDs, last observation carried forward, median 379 days after surgery, read-out: Dose-adjusted drug concentration Median (IQR), Post-surgery) of the same compound?
Answer: Its concentration at 379 days after surgery (median), trough is 13 µM.

Question: And the logD ([2]; octanol/water, pH 7.4)?
Answer: The logD was −1.35.

Question: And the “Abundance in water relative to octanol” value [3]?
Answer: Its value is greater than 20 fold.

Question: With CN(C)C(=N)N=C(N)N [metformin] as the compound, how does the “Concentration change after the bariatric surgery procedure” value (“Concentration change” for short) [4] read?
Answer: Its value is “appeared to increase”.

Question: For COc1c(N2C[C@@H]3CCCN[C@@H]3C2)c(F)cc2c(=O)c(C(=O)O)cn(C3CC3)c12 [moxifloxacin], which “Concentration change” value [4] is on record?
Answer: The value was “appeared to increase”.

Question: Which “Concentration change” value [4] does the source give for CO[C@H]1C[C@@H]2CC[C@@H](C)[C@@](O)(O2)C(=O)C(=O)N2CCCC[C@H]2C(=O)O[C@H]([C@H](C)C[C@@H]2CC[C@@H](O)[C@H](OC)C2)CC(=O)[C@H](C)/C=C(\C)[C@@H](O)[C@@H](OC)C(=O)[C@H](C)C[C@H](C)/C=C/C=C/C=C/1C [sirolimus] here?
Answer: The value was “appeared to decrease”.

Question: What about the logD [2, 5] of the same compound?
Answer: Its logD is greater than 4.

Question: What does the source list for C=CC[C@@H]1/C=C(\C)C[C@H](C)C[C@H](OC)[C@H]2O[C@@](O)(C(=O)C(=O)N3CCCC[C@H]3C(=O)O[C@H](/C(C)=C/[C@@H]3CC[C@@H](O)[C@H](OC)C3)[C@H](C)[C@@H](O)CC1=O)[C@H](C)C[C@@H]2OC [tacrolimus]?
Answer: Concentration change after the bariatric surgery procedure [4]: appeared to decrease; logD [2, 5]: > 4

Question: With CC/C(=C(\c1ccccc1)c1ccc(OCCN(C)C)cc1)c1ccccc1 [tamoxifen] as the compound, how does the “Concentration change” value [4] read?
Answer: Its value is “appeared to decrease”.
